Experimental data as given in patent publication US9278962B2 (Cytokinetics, Inc., priority 2011, dated 2016).

Test system: rabbit skeletal myofibrils (approximately 90% fast fibers)
Experiment: Activation of fast skeletal myofibrils (PUMA coupled-enzyme ATPase assay, AC1.4)
Type: biochemical
Details: concentration at which the compound increased enzymatic activity by 40%, calcium at pCa25

| Compound | Mean AC1.4 (Table 2) | also measured |
| --- | --- | --- |
| COC(=O)NCCCc1nsc(NCC(C)(C)c2ccc(F)cc2)n1 [N-[3-(5-{[2-(4-fluorophenyl)-2-methylpropyl]amino}(1,2,4-thiadiazol-3-yl))propyl]methoxycarboxamide] | B (B=1-10 uM) | – |
| CC(C)(CNc1nc(CCCNC(=O)CN)ns1)c1ccc(F)cc1 [2-amino-N-[3-(5-{[2-(4-fluorophenyl)-2-methylpropyl]amino}(1,2,4-thiadiazol-3-yl))propyl]acetamide] | B (B=1-10 uM) | – |
| CN(C)CCc1nsc(NCC(C)(C)c2ccc(F)cc2)n1 [[2-(5-{[2-(4-fluorophenyl)-2-methylpropyl]amino}(1,2,4-thiadiazol-3-yl))ethyl]dimethylamine] | D (D=>20 uM) | – |
| COc1cccc(Cc2nsc(NCCc3cccc(F)c3)n2)c1 [[2-(3-fluorophenyl)ethyl]{3-[(3-methoxyphenyl)methyl](1,2,4-thiadiazol-5-yl)}amine] | C (C=10-20 uM) | – |
| COc1cccc(Cc2nsc(NCCc3ccc(S(N)(=O)=O)cc3)n2)c1 [4-[2-({3-[(3-methoxyphenyl)methyl]-1,2,4-thiadiazol-5-yl}amino)ethyl]benzenesulfonamide] | D (D=>20 uM) | – |
| Cc1ccc(-c2nnc(NC[C@]3(c4ncccc4F)C[C@@H](F)C3)s2)s1 [N-(((cis)-3-fluoro-1-(3-fluoropyridin-2-yl)cyclobutyl)methyl)-5-(5-methylthiophen-2-yl)-1,3,4-thiadiazol-2-amine] | – | Mean AC1.4 (Table 3): D (D=>20 uM) |
| CC(C)(CNc1nc(-c2ccc(C(N)=O)nc2)ns1)c1ccc(F)cc1 [5-(5-{[2-(4-fluorophenyl)-2-methylpropyl]amino}-1,2,4-thiadiazol-3-yl)pyridine-2-carboxamide] | A (A=<1 uM) | – |
| CC(C)(CNc1nc2c(C#N)cccc2s1)c1ccc(F)cc1 [2-(2-(4-fluorophenyl)-2-methylpropylamino)benzo[d] thiazole-4-carbonitrile] | – | Mean AC1.4 (Table 4): A (A=<1 uM) |
| N#Cc1ccc(F)c(-c2nnc(NCC3(c4ncccc4F)CCC3)s2)c1 [4-fluoro-3-(5-((1-(3-fluoropyridin-2-yl)cyclobutyl)methylamino)-1,3,4-thiadiazol-2-yl)benzonitrile] | – | Mean AC1.4 (Table 3): B (B=1-10 uM) |
| CC(C)(CNc1nc2cc(C(N)=O)ccc2s1)c1ccc(F)cc1 [2-(2-(4-fluorophenyl)-2-methylpropylamino)benzo[d] thiazole-5-carboxamide] | – | Mean AC1.4 (Table 4): B (B=1-10 uM) |
| CC(=O)N1CCC(CNc2nc(-c3cccc(C(N)=O)c3)ns2)(c2ccc(F)cc2)CC1 [3-[5-({[1-acetyl-4-(4-fluorophenyl)-4-piperidyl]methyl}amino)-1,2,4-thiadiazol-3-yl]benzamide] | D (D=>20 uM) | – |
| CC(C)(Nc1nnc(-c2cc(C(N)=O)ccc2F)o1)c1ccc(F)cc1 [4-fluoro-3-(5-(2-(4-fluorophenyl)propan-2-ylamino)-1,3,4-oxadiazol-2-yl)benzamide] | – | Mean AC1.4 (Table 5): C (C=10-20 uM) |
| O=C(Nc1ccn(-c2ccccc2)n1)C1(c2ncccc2F)CCC1 [1-(3-fluoropyridin-2-yl)-N-(1-phenyl-1H-pyrazol-3-yl)cyclobutanecarboxamide] | – | Mean AC1.4 (Table 5): D (D=>20 uM) |
| CC(C)(CNc1nc(CNC(=O)CO)ns1)c1ccc(F)cc1 [N-[(5-{[2-(4-fluorophenyl)-2-methylpropyl]amino}(1,2,4-thiadiazol-3-yl))methyl]-2-hydroxyacetamide] | B (B=1-10 uM) | – |
| Fc1cccnc1C1(CNc2nnc(-c3ccccc3Cl)s2)CCC1 [5-(2-chlorophenyl)-N-((1-(3-fluoropyridin-2-yl)cyclobutyl)methyl)-1,3,4-thiadiazol-2-amine] | – | Mean AC1.4 (Table 3): A (A=<1 uM) |
| Cc1ccc(F)c(-c2nnc(NC[C@]3(c4ncccc4F)C[C@H](F)C3)s2)c1 [N-((3-fluoro-1-(3-fluoropyridin-2-yl)cyclobutyl)methyl)-5-(2-fluoro-5-methylphenyl)-1,3,4-thiadiazol-2-amine] | – | Mean AC1.4 (Table 3): A (A=<1 uM) |

| Compound | Mean AC1.4 (Table 2) | also measured |
| --- | --- | --- |
| NC(=O)c1cccc(-c2nc(NCCCc3ccccc3)ns2)c1 [3-(3-(3-phenylpropylamino)-1,2,4-thiadiazol-5-yl)benzamide] | D (D=>20 uM) | – |
| Cc1ccc(Cc2nsc(NCCc3ccc(Cl)cc3Cl)n2)cc1 [[2-(2,4-dichlorophenyl)ethyl]{3-[(4-methylphenyl)methyl](1,2,4-thiadiazol-5-yl)}amine] | D (D=>20 uM) | – |
| CC(C)(CNc1nc(CN2CCCC(O)C2)ns1)c1ccc(F)cc1 (stereo not shown) [1-[(5-{[2-(4-fluorophenyl)-2-methylpropyl]amino}-1,2,4-thiadiazol-3-yl)methyl]piperidin-3-ol] | D (D=>20 uM) | – |
| N#Cc1cccc(-c2nnc(NC[C@]3(c4ncccc4F)C[C@@H](F)C3)s2)c1 [3-(5-(((cis)3-fluoro-1-(3-fluoropyridin-2-yl)cyclobutyl)methylamino)-1,3,4-thiadiazol-2-yl)benzonitrile] | – | Mean AC1.4 (Table 3): B (B=1-10 uM) |
| CN1CCN(C(=O)CNc2nc(-c3cccc(C(N)=O)c3)ns2)CC1 [3-(5-{[2-(4-methylpiperazinyl)-2-oxoethyl]amino}-1,2,4-thiadiazol-3-yl)benzamide] | D (D=>20 uM) | – |
| CC(C)(CNc1nc(-c2cncc(C(N)=O)c2)ns1)c1ccc(F)cc1 [5-(5-{[2-(4-fluorophenyl)-2-methylpropyl]amino}-1,2,4-thiadiazol-3-yl)pyridine-3-carboxamide] | A (A=<1 uM) | – |
| NC(=O)c1cccc(-c2nsc(NCCCc3ccccc3)n2)c1 [3-{5-[(3-phenylpropyl)amino]-1,2,4-thiadiazol-3-yl}benzamide] | D (D=>20 uM) | – |
| CC(C)(CNc1nc(-c2cncc(C#N)c2)ns1)c1ccc(F)cc1 [5-(5-{[2-(4-fluorophenyl)-2-methylpropyl]amino}-1,2,4-thiadiazol-3-yl)pyridine-3-carbonitrile] | B (B=1-10 uM) | – |
| CC(C)(CNc1nc(-c2ccc(C(N)=O)cc2)ns1)c1ccc(F)cc1 [4-(5-{[2-(4-fluorophenyl)-2-methylpropyl]amino}-1,2,4-thiadiazol-3-yl)benzamide] | A (A=<1 uM) | – |
| Fc1cccnc1[C@]1(CNc2nnc(-c3ccc(Br)s3)s2)C[C@H](F)C1 [5-(5-bromothiophen-2-yl)-N-(((cis)-3-fluoro-1-(3-fluoropyridin-2-yl)cyclobutyl)methyl)-1,3,4-thiadiazol-2-amine] | – | Mean AC1.4 (Table 3): C (C=10-20 uM) |
| CC(C)(CNc1nc(CNC(=O)CN)ns1)c1ccc(F)cc1 [2-amino-N-[(5-{[2-(4-fluorophenyl)-2-methylpropyl]amino}(1,2,4-thiadiazol-3-yl))methyl]acetamide] | C (C=10-20 uM) | – |
| Cc1ccc(Cc2nsc(NCCc3cccc(Cl)c3)n2)cc1 [[2-(3-chlorophenyl)ethyl]{3-[(4-methylphenyl)methyl](1,2,4-thiadiazol-5-yl)}amine] | B (B=1-10 uM) | – |
| CN(C)c1nc(-c2cccc(C(N)=O)c2)ns1 [3-[5-(dimethylamino)-1,2,4-thiadiazol-3-yl]benzamide] | D (D=>20 uM) | – |
| N#Cc1ccc2nc(NCC3(c4ccc(F)cc4)CCC3)sc2c1 [2-((1-(4-fluorophenyl)cyclobutyl)methylamino) benzo[d]thiazole-6-carbonitrile] | – | Mean AC1.4 (Table 4): A (A=<1 uM) |
| CNC(=O)c1ccc2nc(NCC(C)(C)c3ccc(F)cc3)sc2c1 [2-(2-(4-fluorophenyl)-2-methylpropylamino)-N-methylbenzo[d]thiazole-6-carboxamide] | – | Mean AC1.4 (Table 4): B (B=1-10 uM) |
